Data taken from patent US20110318393A1, “Substituted Pyrazole Compounds” (MIIKANA THERAPEUTICS, INC., priority 2008, published 2011).

What was measured:
[1] = target: T1, N-terminal His-tagged human Src (Homo sapiens, UniProt P12931); experiment: Src kinase inhibition assay (33P-ATP filter assay); format: biochemical; settings: 40 minutes, room temperature; less than or equal to 100 nM
T1 construct: His (N); purchased Upstate USA Inc, Charlottesville, Va
Procedure: (§1) Compounds were assayed for Src kinase inhibitory activity using N-terminal His-tagged human Src (Upstate USA Inc, 706 Forest Street, Charlottesville, Va.). Serial dilutions of compound were assayed in a final reaction volume of 25 μL by incubating a solution of the above Src kinase (5-10 mU), 8 mM MOPS (3-(N-morpholino)propanesulfonic acid) pH 7.0, 0.2 mM EDTA (ethylenediamine tetracetic acid), 250 μM amino acid sequence KVEKIGEGTYGVVYK (Upstate USA Inc, 706 Forest Street, Charlottesville, Va.), and 10 mM magnesium acetate and [γ-^33P-ATP] (specific activity of about 500 cpm/pmol, concentration as required). The reaction was initiated by the addition of the magnesium acetate and [γ-^33P-ATP] mixture. After incubation for 40 minutes at room temperature, the reaction was stopped by the addition of 5 μL of a 3% phosphoric acid solution. A 10 μL aliquote of the reaction was then spotted onto a P30 filtermat (PerkinElmer, Wellesley, Mass.) and washed three times for five minutes in 75 mM phosphoric acid and once in methanol prior to drying and scintillation counting. Inhibition of Src activity was determined by comparison to assays that contained no inhibitor.

[2] = target: T2, N-terminal His6-tagged recombinant human KDR, residues 790-end (Homo sapiens, UniProt P35968); experiment: KDR kinase inhibition assay (33P-ATP filter assay); format: biochemical; settings: 40 minutes, room temperature; less than or equal to 100 nM
T2 construct: recombinant human KDR, residues 790-end; His6 (N); purchased Upstate USA Inc, Charlottesville, Va
Procedure: as §1, with “for KDR” for “for Src”, “N-terminal His6-tagged recombinant” for “N-terminal His-tagged”, “human KDR, residues 790-end” for “human Src”, “above KDR” for “above Src”, “acid), 0.33 mg/mL myelin basic protein” for “acid), 250 μM amino acid sequence KVEKIGEGTYGVVYK”, “of KDR” for “of Src”

[3] = system: HCT-116 cell growth; experiment: Whole cell cytotoxicity assay: Sulforhodamine B; format: cell-based; settings: Homo sapiens, HCT116, 96 hours, SRB staining, less than or equal to 100 nM
Procedure: Human tumor-derived cell lines, HCT116 or MCF7 (ATCC) were plated in a 96 well plate in DMEM containing 10% fetal bovine serum and 2 mM L-glutamine at a density of 500 HCT116 cells or 1,000 MCF7 cells per well and incubated at 37° C., 5% CO2, for 24 hours prior to the addition of experimental compounds. Compounds were added using the dilution series indicated to duplicate plates and the cells were incubated in media plus compound for 96 hours. An additional plate was fixed in 10% TCA at the time of the addition of compound to provide a measurement of the cell population at time zero, the time of drug addition. […] The absorbance was read at 570 nm. Percentage growth was calculated using the absorbance readings from the time zero plate (Tz) and the dilution series plate […] which included a column of cells grown in media without compound as a control (C) using the formulas: […]
Three dose response parameters were calculated for each experimental agent. […] The drug concentration resulting in total growth inhibition (TGI) was calculated from Ti=Tz. […] Values are calculated for each of these three parameters if the level of activity was reached; however, if the effect was not reached or was exceeded, the value for that parameter is expressed as greater or less than the maximum or minimum concentration tested.

Measured: IC50

T1 sequence (P12931 whole entry): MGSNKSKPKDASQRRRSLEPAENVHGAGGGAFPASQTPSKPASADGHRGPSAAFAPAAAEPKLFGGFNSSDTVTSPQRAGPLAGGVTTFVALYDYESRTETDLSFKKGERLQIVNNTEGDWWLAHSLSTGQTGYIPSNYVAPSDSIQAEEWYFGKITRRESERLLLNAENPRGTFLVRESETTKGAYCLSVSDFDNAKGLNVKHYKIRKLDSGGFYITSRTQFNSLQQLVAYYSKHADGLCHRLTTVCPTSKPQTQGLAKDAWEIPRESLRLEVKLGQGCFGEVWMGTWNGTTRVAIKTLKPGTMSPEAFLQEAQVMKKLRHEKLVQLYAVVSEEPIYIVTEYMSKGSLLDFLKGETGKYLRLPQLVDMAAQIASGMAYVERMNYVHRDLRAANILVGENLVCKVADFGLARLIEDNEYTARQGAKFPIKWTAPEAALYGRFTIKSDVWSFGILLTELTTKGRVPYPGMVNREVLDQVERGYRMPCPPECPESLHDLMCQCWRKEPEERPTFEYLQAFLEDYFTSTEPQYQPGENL
T2 sequence (P35968 790-1356 limits assumed): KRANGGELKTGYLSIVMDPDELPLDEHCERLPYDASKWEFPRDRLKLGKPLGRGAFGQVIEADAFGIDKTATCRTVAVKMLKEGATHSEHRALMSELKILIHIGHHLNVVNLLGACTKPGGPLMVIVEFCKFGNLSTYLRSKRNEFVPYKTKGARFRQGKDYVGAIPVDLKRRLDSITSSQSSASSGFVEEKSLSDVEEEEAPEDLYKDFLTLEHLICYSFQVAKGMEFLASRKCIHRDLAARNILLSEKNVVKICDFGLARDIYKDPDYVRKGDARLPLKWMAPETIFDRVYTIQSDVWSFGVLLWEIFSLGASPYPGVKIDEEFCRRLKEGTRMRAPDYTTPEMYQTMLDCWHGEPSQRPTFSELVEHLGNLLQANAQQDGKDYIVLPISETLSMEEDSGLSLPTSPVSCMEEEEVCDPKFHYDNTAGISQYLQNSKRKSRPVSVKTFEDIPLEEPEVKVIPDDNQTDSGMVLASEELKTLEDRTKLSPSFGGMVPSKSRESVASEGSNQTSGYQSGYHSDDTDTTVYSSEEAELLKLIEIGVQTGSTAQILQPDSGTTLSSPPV

Cc1cc(Nc2cc(N3CCC(N4CCCCC4)CC3)nc(/C=C/c3ccccc3)n2)n[nH]1 [Compound 5, (E)-6-(1,4′-bipiperidin-1′-yl)-N-(5-methyl-1H-pyrazol-3-yl)-2-styrylpyrimidin-4-amine]
≤ 0.1 µM: all assays above

Cc1cc(Nc2cc(N3CCN(c4ccncc4)CC3)nc(/C=C/c3ccccc3)n2)n[nH]1 [Compound 22, (E)-N-(5-methyl-1H-pyrazol-3-yl)-6-(4-(pyridin-4-yl)piperazin-1-yl)-2-styrylpyrimidin-4-amine]
≤ 0.1 µM: all assays above
